{"source": "patent US20240293441A1", "about": "“NEW THERAPEUTIC USE OF TYPE 2 IODOTHYRONINE DEIODINASE (D2) INHIBITORS” (MATERIAS S.R.I, priority 2021, published 2024)", "key": {"[1]": {"test_system": "mice with CTX-injured tibialis anterior (TA) muscle", "assay": "Muscle regeneration after cardiotoxin (CTX) injury in rT3-treated mice", "type": "in vivo, mouse", "method": "Animals were anesthetized by a ketaminexylazine cocktail, and 12,5 μl of 60 μg/ml CTX (Naja mossambica mossambica, Sigma-Aldrich) was injected into and along the length of the right tibialis anterior (TA) (Yan, 2003 J Biol Chem 278(10): 8826-8836) and 25 μl into gastrocnemius muscle. CTX was injected on different day from Tam.\nThe tibialis anterior (TA) muscles were dissected and fixed in isopentane in liquid nitrogen, and sliced into 7 μm sections. The cross-sectional area was analyzed and quantified using CellF*Olympus Imaging Software.\nDissected muscles were snap frozen in liquid nitrogen-cooled isopentane, sectioned (7 μm thick) and stained. For immunofluorescent staining, cells or section were fixed with 4% formaldehyde (PFA) and permeabilized in 0.1% Triton X-100, then blocked with 0.5% goat serum and incubated with primary antibody. Alexa Fluor™ 594/647-conjugated secondary antibody was used. Images were acquired with an IX51 Olympus microscope and the Cell*F software. For hematoxylin/eosin staining (H&E), sections were fixed for 15 min and placed in hematoxylin for 5 min followed washed, and 5 min in Eosin.\n(§1) In vivo: mice (C56BL6 mice) were treated systemically with an i.v. injection of 100 μl of 30 ng/μl rT3 (Sigma Aldrich) or PBS vehicle control to consecutive 4 days.\nTo therapeutically exploit the capacity of D2-depletion to activate stem cells and accelerate muscle tissue repair, mice were treated with oral reverse triiodothyronine (rT3, a specific D2-inhibitor) for 7 days (−5/+2 relative to CTX injury) (FIG. 7A)."}, "[2]": {"test_system": "mice with full-thickness skin wounds", "assay": "Skin wound healing in rT3-treated mice", "type": "in vivo, mouse", "method": "The back fur of mice was shaved and the skin was cleaned with 70% alcohol. The dorsal skin was pulled using forceps and two 8-mm full-thickness skin wounds were created along the midline using a sterile 8 mm circular biopsy punch by pressing through both layers of the skin pull. Skin wound healing was measured every 2-3 days by anesthetizing the animals and imaging the wounded area.\nExcisional, full-thickness skin wounds were aseptically made on the dorsal skin by picking up a fold skin at the midline and using a sterile, disposable biopsy punch with a diameter of 8 mm to punch through the two layers of skin. In this manner, two wounds were made on each side of the midline at the same time. Each wound site was digitally photographed using the Nikon FX-35A at the indicated time intervals, and wound areas were determined on photographs using CellF*. Changes in wound areas were expressed as the percentage of the initial wound areas.\nas §1\nIn a similar setting, the present inventors also tested whether D2 inhibition positively affected wound regeneration in skin."}, "pp6 cells": {"test_system": "pp6 cells", "assay": "TNFα-induced cell death (PARP immunoblot) in muscle cells with or without rT3", "type": "cell-based, mouse", "details": "TNFα 24 h; rT3 30 nM", "method": "Primary muscle cultures (pp6) were isolated as described (Qu et al., 1998 J Cell Biol 142(5): 1257-1267) from the indicated mouse lines. Immortalized myoblasts (C2C12) were obtained from ATCC. Proliferating cells were cultured in 20% Fetal Bovine Serum Dulbecco's modified Eagle's medium at 37° C. with penicillin/streptomycin. Transient transfections were performed using Lipofectamine 2000 (Life Technologies) according to the manufacturer's instructions. Anti-MyoD (sc-304) and tubulin (sc-8035) antibodies were purchased from Santa Cruz Biotechnology. Anti-Pax7 antibody were from Developmental Studies Hybridoma Bank. Anti-PARP was from Cell Signaling Technology.\nTotal protein extracts from cells and tissues were run on a 10% sodium dodecyl sulfate-polyacrylamide gel electrophoresis gel and transferred to an Immobilon-P transfer membrane (Millipore, Billerica, MA). The membrane was then blocked with 5% nonfat dry milk in phosphate buffered saline, probed with the primary antibody, washed and incubated with horseradish peroxidase-conjugated donkey anti-rabbit or mouse immunoglobulin G secondary antibody (1:3000), and detected by chemiluminescence (Millipore). After extensive washing, the membrane was incubated with antitubulin-specific or ERK antibody (1:10,000; sc-8035, Santa Cruz, Dallas, TX) as loading control.\nIn vitro: Pp6 or C2C12 cells were treated with rT3 (30 nM) […]"}, "C26-injected mice": {"test_system": "C26-injected mice", "assay": "C26 tumor-induced cancer cachexia mouse model with oral amiodarone", "type": "in vivo", "method": "Murine colon 26 adenocarcinoma cells (C26) were cultured in DMEM containing 10% fetal bovine serum, 100 U/ml penicillin, and 100 μg/ml streptomycin. For in vivo inoculation, a single suspension of 7×10^6 cells in 100 μl of physiological saline was injected subcutaneously into the right flank of the BALB/c mice. The same volume of physiological saline was injected into the control groups.\nIn cachexia+/−Amiodarone experiments, mice were treated for 18 days with Amiodarone and were sacrificed 7 days post induced-cachexia. Amiodarone was given from […] (day 1 is the day of cells injection).\n(§2) Mice (C57BL6 mice) were treated with 0.45 mg/ml Amiodarone (Sigma, A8423, St. Louis, MO, USA) (Bagchiet al., Circulation Research 1987; 60:621-625; Lee et al., Oncotarget, 2015; 6(40): 42976-42987) in drinking water ad libitum starting 1 week before the induced-denervation or cachexia, until sacrifice.\n(§3) Preparation of amiodarone: 45 mg dissolved in 1 ml of water for 10 minutes at 80° C.\nIn tumor-induced cachexia mice models, mice were treated with oral amiodarone for 18 days (−7/+11 relative to C26 injection) (FIG. 10A). Matched group of amiodarone-treated and control mice were injected with C26 cells, and muscle wasting was monitored to different days following injection."}, "denervated mice": {"test_system": "denervated mice", "assay": "Denervation (sciatic nerve transection) muscle wasting mouse model with oral amiodarone", "type": "in vivo", "method": "Animals were anesthetized by a ketaminexylazine cocktail and a small incision ([…]) was made in the left tight skin. The sciatic nerve was exposed with the help of a small surgical hook and then cut before the separation of sciatic nerve branches. A small (2-5 mm) nerve section was removed to prevent re-innervation. Denervation was performed unilaterally, using the contralateral hindlimb as a negative control. Tissues were collected 2, 6, 12 or 15 days after denervation surgery.\nIn denervation+/−Amiodarone experiments, mice were treated for 13 days with Amiodarone and were sacrificed 5 days post induced-denervation (from day −7 up day+5 upon denervation).\nas §2, §3\nIn denervation mice models, mice were treated with oral amiodarone for 13 days (from day −7 up day+5 upon denervation)."}, "DysE17 flies": {"test_system": "DysE17 flies", "assay": "Climbing assay (negative geotaxis) in dystrophic Drosophila fed amiodarone", "type": "in vivo, Drosophila melanogaster", "from_the_text": "The genetic loss-of-function homozygous Drosophila mutant for dystrophin (dys), DysE17 (hiips://flybase.org/reports/FBal0241311.html) was employed as a Duchenne muscular dystrophy model, which carries a point mutation on chromosome 3 (location: 92A10, 3R:19,590,458 . . . 19,590,458) causing a nucleotide change C19590458T and consequently the amino acid change Q2807term|Dys-PA. This is a termination codon determining full-length dys protein to be abnormally shortened. As control, the wild-type Oregon-R strain was used.\nThe adult wild-type animals and mutant fruit flies were treated with amiodarone at increasing concentrations, supplemented in the food for 30 days.\nEclosed Oregon-R and homozygous DysE17 Drosophila (1-2 days of adult age) were placed in vials (10-15 animals/vials) and reared on 4-5 ml of either the standard medium or medium supplemented with amiodarone at increasing doses (100 nM, 1 μM, 10 μM, 20 μM, and 50 μM). Food was replaced each 5 days. Amiodarone-supplemented diets were freshly prepared by mixing amiodarone with appropriate amounts of standard food just before the administration to animals. At least 3 vials per group were prepared within each experiment. Each experiment was repeated 3 or more times: in total, a minimum of 60 animals per experimental condition was analysed.\n• Oregon-R receiving vehicle (DMSO 1:1000); • DysE17 flies receiving vehicle (DMSO 1:1000); • DysE17 flies receiving 100 nM amiodarone; • DysE17 flies receiving 1 μM amiodarone; • DysE17 flies receiving 10 μM amiodarone; • DysE17 flies receiving 20 μM amiodarone; • DysE17 flies receiving 50 μM amiodarone.\nFlies were treated for 30 days (treatments ended when animals reached 30 days of adult age), with food renewal each 5 days.\nGeotaxis was assessed using a climbing assay (negative geotaxis reflex in opposition to the Earth's gravity). A horizontal line was drawn 15 cm above the bottom of the vial. After a 10 minutes rest period, the flies were tapped to the bottom of the vials: all flies were forced to start climbing (vertical walking). The number of flies that climbed up to the 15 cm mark after 60 seconds was recorded as the percentage success rate. A camera recorded fly movement during the experiment. Each trial was performed three times, at one-minute intervals, and the results averaged. Climbing performance was assessed each 5 days starting from day 1-2 of adult age (just after eclosion) and ending at 30 days.\nFor the validation study, the climbing efficiency and muscle structure of adult wild-type animals and DysE17 mutants were analyzed after food supplementation with amiodarone at increasing concentrations for 0-30 days (geotaxis assay)."}, "[3]": {"details": "7 days post-CTX, oral rT3 for 7 days (−5/+2 relative to CTX injury), vs control"}, "[4]": {"details": "TA muscle, 11 days after C26 cells injection, vs control"}, "[5]": {"details": "gastrocnemius, oral amiodarone 13 days (day −7 to +5 upon denervation), vs control"}}, "data": [{"smiles": "N[C@@H](Cc1ccc(Oc2cc(I)c(O)c(I)c2)c(I)c1)C(=O)O", "note": "[Reverse triiodothyronine (rT3), 3,3′5′-triiodothyronine]", "values": [{"measurement": "fiber size (cross-sectional area)", "setting": "[1]; [3]", "value": "smaller than control"}, {"measurement": "number of fibers (H&E)", "setting": "[1]; [3]", "value": "increased number of fibers"}, {"measurement": "fiber size (cross-sectional area)", "setting": "[1]; 21 days after injury, rT3 for 7 days, vs control", "value": "larger fibers"}, {"measurement": "Pax7+/EdU+ cells", "setting": "[1]; TA sections, rT3 treated mice vs control", "value": "increased than control"}, {"measurement": "regrowth of hair in the shaved area", "setting": "[2]; later time points following skin wounding (28 days post-injury)", "value": "more complete regrowth of hair"}, {"measurement": "wound repair", "setting": "[2]; rT3-treated mice vs control", "value": "more rapidly and efficiently than control"}, {"measurement": "TNFα-induced apoptosis", "setting": "pp6 cells", "value": "protected from apoptosis"}]}, {"smiles": "CCCCc1oc2ccccc2c1C(=O)c1cc(I)c(OCCN(CC)CC)c(I)c1", "note": "[Amiodarone (AMIO), Amiodarone]", "values": [{"measurement": "Atrogin-1 mRNA expression", "setting": "C26-injected mice; [4]", "value": "potently down-regulated"}, {"measurement": "MuRF-1 mRNA expression", "setting": "C26-injected mice; [4]", "value": "potently down-regulated"}, {"measurement": "survival", "setting": "C26-injected mice; after C26 cells injection, control mice about 12.7 days", "value": "> 27", "unit": "days"}, {"measurement": "tumor weight", "setting": "C26-injected mice; amiodarone-treated vs control mice, 11 days after C26 cells injection", "value": "no significant effects"}, {"measurement": "muscle wasting (body, heart, TA and GC weight)", "setting": "C26-injected mice; oral amiodarone for 18 days (−7/+11 relative to C26 injection), vs control", "value": "preserved from massive muscle wasting"}, {"measurement": "muscle wasting (gastrocnemius muscle mass)", "setting": "denervated mice; after denervation, oral amiodarone 13 days", "value": "preserved from massive muscle wasting"}, {"measurement": "Atrogin-1 mRNA expression", "setting": "denervated mice; [5]", "value": "potently down-regulated"}, {"measurement": "MuRF-1 mRNA expression", "setting": "denervated mice; [5]", "value": "potently down-regulated"}, {"measurement": "functional deficits vs untreated Dys animals", "setting": "DysE17 flies; after 25-30 days of treatment", "value": "the same functional deficits"}, {"measurement": "damaged animals (climbing decay)", "setting": "DysE17 flies; amiodarone 10 μM for 15 days, untreated Dys 35%", "value": 18, "unit": "%"}, {"measurement": "damaged animals (climbing decay)", "setting": "DysE17 flies; amiodarone 10 μM for 20 days, untreated Dys 55%", "value": 32, "unit": "%"}, {"measurement": "most effective concentration on fly mobility", "setting": "DysE17 flies; doses 100 nM to 50 μM in food, 30 days", "value": 10, "unit": "µM"}, {"measurement": "muscle structure of functionally recovered muscles", "setting": "DysE17 flies; dystrophic mutant flies, chronic amiodarone", "value": "still compromised at structural level"}, {"measurement": "effect on climbing decay of dystrophic animals", "setting": "DysE17 flies; higher concentrations, 20-50 μM", "value": "did not alter the climbing decay"}, {"measurement": "effect on fly mobility", "setting": "DysE17 flies; increasing doses from 100 nM to 10 μM", "value": "dose-dependent beneficial effect"}, {"measurement": "effect on mobility at shorter times", "setting": "DysE17 flies; treatment shorter than 15 days (10 days)", "value": "no effects"}]}]}
